This is an account of results in patent US20230320986A1, “TARGETED ANT[…] SYSTEM FOR CANCER TREATMENT” (priority 2020, published 2023).

Series [1] is described as follows: Encapsulation efficiency in polymersomes (section 3.2). It counts as physicochemical. Conditions: thin-film hydration, after size exclusion chromatography. The procedure:
For the encapsulation of the drug inside PS, 50 nmols of drug were dissolved in 100 µL of acetone and added to the polymers dissolved in acetone (total amount of polymer was 5 mg). The acetone was evaporated to form the polymer/drug film and the PS were formed as described above.
PS were purified by size exclusion chromatography. Agarose beads with a diameter of 45-165 µm ([…] 4B gel) were used as stationary phase. The height of the Sephadex gel in a column was 8 cm (volume 25.13 mL). The PS sample was eluted with PBS pH 7.4.
The amount of encapsulated drug was quantified using a Nanodrop 2000c UV-VIS spectrophotometer (Thermo Scientific, USA). For drug quantification, serial dilutions of drug in MeOH:water 1:1 were prepared and the absorbance at 490 nm was measured. Using gathered data, the linear trend line was constructed in MS Excel program and the formula was further used to evaluate the concentration of drug inside PS.
For assessment of the UTO encapsulation efficiency the above depicted anthracycline derivative was encapsulated in a PS using a thin-film hydration method. After encapsulation the sample was purified by size exclusion chromatography to remove non-encapsulated drug. […]

In the next series the test system is M21 cells. The series is described as follows: Cytotoxicity in cultured cells. In kind it is cell-based, human. Particulars: 25 µM drug, 30 min treatment. The procedure:
(§1) For assessment of the UTO cytotoxicity the cytotoxicity of RPAR-UTO-PS, UTO-PS, PS, free UTO, and free DOX in cultured PPC-1 (FIG. 4) and M21 (FIG. 5) cells after 30 min treatment over a range of drug concentrations was tested.

In a further series the test system is PPC-1 cells. The series is described as follows: Cytotoxicity in cultured cells. Conditions: 30 min treatment. In kind it is cell-based, human. Here is the method: as §1
Series [2] is described as follows: Encapsulation efficiency, comparison PS-UTO vs. PS-DOX (section 4). It counts as physicochemical. Particulars: PEG-PCL-PS. Here is the method: Polymersomes were prepared by dissolving 5 mg of PEG-PCL in 0.3 mL acetone. The acetone was evaporated with nitrogen flow forming a thin polymeric film on the wall of the glass vial. The film was hydrated with 0.5 mL of PBS pH 7.4 previously purged with nitrogen flow, heated for 30 seconds in a 65° C. water bath, and sonicated for 30 seconds. The heating and sonication steps were repeated until the PS were formed and polymer aggregates were not observed in the suspension. The final volume of PS samples was 0.5 mL and the total polymer concentration 10 mg/mL.
For the PS encapsulation of UTO […] of UTO were dissolved in 100 µL of acetone (0.5 mM concentration) and added to the polymers dissolved in acetone (total amount of polymer - 5 mg, UTO concentration 0.125 mM). The acetone was evaporated to form the polymer/drug film and the PS were formed as described above.
For DOX encapsulation the polymeric film was hydrated with 2 mM DOX solution in PBS pH 7.4 and the PS were formed as described above. […]
The UTO and DOX PS-encapsulated amounts were quantified using UV-VIS spectrometry (Thermo Scientific, USA). For UTO quantification, serial dilutions of UTO in MeOH:water 1:1 were prepared and the absorbance at 485 nm was used for calibration. For DOX quantification, serial dilutions of DOX in PBS were prepared and also the absorbance at 485 nm was measured. […]

Series [3] in a line: Cumulative drug release from polymersomes. In kind it is physicochemical. Conditions: after 48 h, 37° C., PBS. Here is the method:
To further evaluate the UTO and DOX cumulative release behavior from polymersomes, UTO-and DOX-loaded PS were incubated at 37° C. in PBS (0.25 mL) for different time periods (0; 1; 4; 24; and 48 h). The samples were centrifuged using Amicon Ultra centrifugal filters (MWCO 100 kDa) for 20 min at 6,000 g at RT. The fluorescence of the filtrates was measured at 485 nm/535 nm (0.1 s) using a Victor X5 Multilabel Microplate Reader (Perkin Elmer, USA) to quantify the released drug amount.

Consider `COc1cccc2c1C(=O)c1c(O)c3c(c(O)c1C2=O)C[C@@](O)(C(=O)CO)C[C@@H]3O[C@H]1C[C@H](N)[C@H](O)[C@H](C)O1` [DOX, doxorubicin], for which the “encapsulation efficiency (EE)” value in series [1] amounted to 1%; in series [2] (film hydration, after purification), 2.3%. Also, the cell viability in the series with M21 cells is on record as 58%; with PPC-1 cells (2.5 µM drug), 87%; in the series with PPC-1 cells (25 µM drug), 56%. Moreover, in series [2], the “encapsulation efficiency, times lower compared to UTO” value is on record as “approximately 20 times”. Also, in series [3], the “drug released from the PS” value is on record as “approximately 10%”.
As to `CC(=O)OCOC(=O)N1CO[C@@H]2[C@H](C)O[C@@H](O[C@H]3C[C@](N)(C(C)O)Cc4c(O)c5c(c(O)c43)C(=O)c3ccccc3C5=O)C[C@@H]21` (some centres unmarked) [UTO], the viability at 25 µM in the series on M21 cells (Homo sapiens, 0.5 h, read-out: cell viability) was 15%; in the series on PPC-1 cells (Homo sapiens, 0.5 h, 25 µM drug, read-out: cell viability) it was 14%. For the same compound, the viability at 2.5 µM in the series with PPC-1 cells (Homo sapiens, 0.5 h, 2.5 µM drug, read-out: cell viability) stood at 68%. The “drug released from the PS” value in series [3] is “less than 3%”.
